Series [1] concerns eye muscles. The settings on record: in vivo.
Series [2] deals with brain synaptosome preparations. As to conditions: cited from earlier work.
Series [3] relates to glaucoma patients. The arrangement: species or system human. As to conditions: in vivo.
Series [4] relates to eyelid muscles (Riolan's muscle, orbicularis muscle). The arrangement: species or system human. The settings on record: in vivo.
The test system of series [5] is primary cultures of spinal cord neurons. The settings on record: cited from earlier work.
Series [6] concerns glaucoma patients. As to conditions: human, in vivo.
The subject of series [7] is glaucoma patients. The settings on record: human, in vivo. This is another data set of the same source.

“And” between values parts separate entries of the source, which are not always exact repeats. Identical values can stand only once. “Also recorded” adds a separate entry of the source.

With `COc1cccc2c1C(=O)c1c(O)c3c(c(O)c1C2=O)C[C@@](O)(C(=O)CO)C[C@@H]3O[C@H]1C[C@H](N)[C@H](O)[C@H](C)O1` [doxorubicin], in series [1], the “effect on eye muscles” value was “reduce the strength of eye muscles”; the “reducing and modulating muscle volume and muscle contraction” value is on record as “have proven to be effective”.

Consider botulinum toxin, for which the “release of acetylcholine and glutamate” value in series [2] is on record as “inhibits the release of both neurotransmitters”. The “disturbance of lid function / subjective complaints” value in series [3] is recorded as “did not lead to any apparent disturbance of lid function”. Moreover, in series [4], the “baseline eye pressure after injection” value is listed as “A reduction of baseline eye pressure was also noted”, the “decrease in eye pressure per spike per blink” value is listed as “more than 5 mm Hg”, the “lower increase in eye pressure during forceful squeezing of the eyelids compared with control” value is approximately 50% and the “reduction in eye pressure after forceful closure of the eyes” value is listed as approximately 35%. In series [4], the “spike in pressure during blinking measured by LMD” value is 25 mm Hg and 20 mm Hg. Moreover, in series [5], the “evoked release of glutamate” value is reported as “inhibits the evoked release of glutamate”. In series [6], the “Outcome: VF progression” value was “no VF progression; also recorded: minimal VF progression” and the “Outcome: progression of diabetic retinopathy” value is given as “No progression of diabetic retinopathy”. In addition, in series [7], the “12 week period average reduction of baseline eye pressure” value worked out at 16%; the “% IOP reduction” value is 16.6% and 11.5%; the “% reduction IOP” value was 12.5% and 10% and 7%; the “IOP post Rx during first 3 Rx” value is 26 and 24 and 23. Moreover, in series [7], the IOP reduction was 10.5% and 14%; the “reduction of IOP in the treated eye” value is listed as “no reduction of IOP”.

Consider `CCN(CC)CC(=O)Nc1c(C)cccc1C` [lidocaine, Diethylaminoacet-2,6-xylidide], for which the “modulation of muscle action” value in series [1] (iv) is listed as “promotes the desired effect, but the effect is short lived”.

For `NCC1(CC(=O)O)CCCCC1` [Gabapentin], in series [1], the therapeutic effect result is reported as “achieved therapeutic effect”.

Regarding `COc1ccc(CCN(C)CCCC(C#N)(c2ccc(OC)c(OC)c2)C(C)C)cc1OC` (stereo not drawn) [verapamil], in series [1], the therapeutic effect result is “causes desired therapeutic effect”.

The values are drawn from patent publication US20120282242A1 (priority 2002, published 2012).
